Data taken from patent US20260000642A1 (Tay Therapeutics Limited, priority 2022, published 2026).
Several values for one entry are separate records, joined by “and”; a condition that tells them apart may be missing. Identical values can stand only once.

What was measured:
[1] = Pharmacokinetics of Example 101 in Lewis rats (oral, CIA study); assay type: in vivo, Lewis rat; conditions: day 20, 10 mg/kg, individual test subjects
[2] = Plasma stability assay, human plasma; assay type: in vitro ADME; conditions: 37° C., Method 1 (5 μM)
IL-17A = assay: Human PBMC assay, IL-17A by ELISA (CD2/CD3/CD28 bead stimulation); assay type: cell-based; conditions: 72 hours
Description: (§1) CD2, CD3, and CD28 antibody-coated beads from the T-cell activation/expansion kit (Miltenyi Biotec) were added to the PBMC at a bead-to-cell ratio of 1:2. The mixture of PBMCs and beads were seeded into the wells of the round-bottom 96-well plate at a concentration of 2×10^5 cells/well in a total volume of 200 μL. The cells were cultured for 72 hours at 37° C. and 5% CO2 and then supernatants were collected and IL-17A and IL-22 levels were measured by ELISA. […] The final compound concentration ranged from 30,000 nM to 0.005 nM and the final DMSO concentration per well was 0.3%. PBMCs were seeded at approximately […] in the wells of the 96-well tissue culture plate in a total volume of 190 μL. The plate was incubated for 1 hour at 37° C. and 5% CO2. […] The cells were then cultured for 24 hours at 37° C. and 5% CO2. The supernatant was collected and CXCL10 levels were measured by ELISA.

IL-22 = assay: Human PBMC assay, IL-22 by ELISA (CD2/CD3/CD28 bead stimulation); assay type: cell-based; conditions: 72 hours
Description: as §1

## CNC(=O)c1[nH]c(C(=O)NC2CCC2)cc1O[C@@H](C)c1ccccc1 [Example 101, N^5-cyclobutyl-N^2-methyl-3-(1-phenylethoxy)-1H-pyrrole-2,5-dicarboxamide]
[1]
  Plasma concentration at 14 h: 68.5 ng/mL and 159 ng/mL and 185 ng/mL
[2]
  Plasma Stability (% remaining at 120 minutes) Human: 93%
IL-17A
  IC50 for IL-17A relative to GSK620: substantially lower 1050
IL-22
  IC50 for IL-22 relative to GSK620: substantially lower 1050
